Common to all, as to test: MIC assay of test compounds combined with imipenem (4 μg/mL)
Format in all cases: cell-based
What all share (conditions): imipenem 4 μg/mL fixed

For experiment [1], the system named is Klebsiella pneumoniae XNWB 0004. The procedure: (§1) The bacterial strains used for the minimum inhibitory concentration (MIC) test were frozen in a −80° C. ULT freezer and thawed 2 days before use. A small amount of frozen bacterial strains were scraped using a sterile inoculating loop, streaked onto a TSA solid culture dish for inoculation, and then cultured for 20-24 h at 35±2° C. in a normal atmospheric environment. 5-10 colonies with similar morphology were picked from the culture dish using a sterile inoculating loop and then re-streaked onto a suitable solid culture dish. Then the dish was placed into a normal incubator for culture for 20-24 h at 35±2° C. 5-10 single bacterial colonies were picked from the solid culture dish, resuspended in 500 μL of 0.9% NaCl, and adjusted to an OD600 of 0.1-0.15 with a spectrophotometer. The bacteria were then diluted 300-fold with 1.1×CAMHB. […] Dilution of test compounds: […] 2 μL of each compound in the dilution master plate of the test compounds was transferred to the corresponding well of the assay plates. In the mean time, 2 μL of 100% DMSO was transferred to the compound-free wells (GC and SC wells). (1) 8 μL of imipenem in the additive plate of imipenem was transferred to the corresponding wells of the assay plates; (2) 8 μL of ceftazidime in the additive plate of ceftazidime was transferred to the corresponding wells of the assay plates; (3) 8 μL of ampicillin in the additive plate of ampicillin was transferred to the corresponding wells of the assay plates. 90 μL of corresponding bacterial inocula were added to wells (except for SC wells) of the assay plates. After addition, the 6 assay plates were covered by sterile covers. The mixtures in the assay plates were centrifuged by a centrifuge at 1000 rpm for 30 s, and mixed uniformly by oscillating with a microplate oscillator at 800 rpm for 1 min, and then cultured in a common incubator for 16-20 h at 35±2° C. The minimum inhibitory concentration of each compound was recorded by reference to guidelines from the Clinical and Laboratory Standards Institute. […] The effect of the test compounds in combination with imipenem, ceftazidime, and ampicillin was also tested. […] The bacterial inocula in the assay plates were resuscitated from TSA and diluted in CAMHB, while growth controls (GC wells) and sterile controls (SC wells) were set up in the assay plates. The minimum inhibitory concentration of each compound combination against different bacteria was observed and recorded after the assay plates were incubated in a common incubator at 35±2° C. for 16-20 h, and the results are shown in Tables 1-3.

The test system of experiment [2] is Acinetobacter baumannii XNWB 0007. The procedure: as §1
Experiment [3] deals with Klebsiella pneumoniae XNWB 0005. The procedure:
as §1

Experiment [4] relates to Pseudomonas aeruginosa XNWB 0008. The procedure:
as §1

Experiment [5] deals with Klebsiella pneumoniae XNWB 0006. The procedure:
as §1

Experiment [6] has as its system Klebsiella pneumoniae XNWB 0001. The procedure:
as §1

Experiment [7] deals with Klebsiella pneumoniae XNWB 0003. The procedure:
as §1

Experiment [8] concerns Klebsiella pneumoniae XNWB 0002. The procedure: as §1

Where a name gives a salt, the structure may show the parent alone.

As for `NC[C@@H](O)c1nnc([C@@H]2CC3(CC3)[C@@H]3CN2C(=O)N3OS(=O)(=O)O)o1` [Example 61], the “The minimum concentration of test compounds combined with imipenem (4 μg/mL) for bacteriostasis” value (from here on “The minimum concentration”) in experiment [1] was “A (A: <8 μg/mL)”; in experiment [2] it was “B (B: 8-16 μg/mL)”; in experiment [3], “A (A: <8 μg/mL)”; in experiment [4], “B (B: 8-16 μg/mL)”; in experiment [5], “A (A: <8 μg/mL)”; in experiment [6] it was “A (A: <8 μg/mL)”. Also, the “The minimum concentration” value in experiment [7] and in experiment [8] was “A (A: <8 μg/mL)” each time.

For the compound `NC[C@H](O)c1nnc([C@@H]2CC3(CC3)[C@@H]3CN2C(=O)N3OS(=O)(=O)O)o1` [Example 62, (1R,4S)-4-(5-((S)-2-amino-1-hydroxyethyl)-1,3,4-oxadiazol-2-yl)-6-oxo-5,7-diazaspiro[bicyclo[3.2.1]octane-2,1′-cyclopropane]-7-yl hydrogen sulfate], the “The minimum concentration” value in experiment [1] is listed as “A (A: <8 μg/mL)”; in experiment [2], “A (A: <8 μg/mL)”; in experiment [3], “A (A: <8 μg/mL)”; in experiment [4], “B (B: 8-16 μg/mL)”; in experiment [5], “A (A: <8 μg/mL)”; in experiment [6], “A (A: <8 μg/mL)”. The “The minimum concentration” value in experiment [7] and in experiment [8] was “A (A: <8 μg/mL)” each time.

These data come from patent US11078202B2, “β-lactamase inhibitor and use thereof” (priority 2018, dated 2021).
